# Laboratory results published in ChEMBL document CHEMBL4038264, “Nabscessins A and B, Aminocyclitol Derivatives from Nocardia abscessus IFM 10029T” (J Nat Prod, 2017).
# *1 amine or outer side, *2 acyl side, *3 side chain or, on linkers, in order; H or OH if unused. Where a SMILES comes first, the peptide text is derived from it. Bridges are numbered along the chain shown (N, C = ends). [ ]: non-standard residue; d: D form. The star is where a group is joined. hTyr(3S-OH,4S-OH,3'-OSO3H) = N[C@H](C(=O)O)[C@H](O)[C@@H](O)c1ccc(O)c(OS(=O)(=O)O)c1; Orn(4R-OH,5R-OH) = O=C([C@H](C[C@@H](O)[C@@H](O)N[*:3])N[*:1])[*:2]; Pro(3S-OH,4S-Me) = C[C@H]1CN[C@H](C(=O)O)[C@H]1O; X1 = CCCCCOc1ccc(-c2cc(-c3ccc(C(=O)*)cc3)no2)cc1; Gln(3R-OH) = NC(=O)C[C@@H](O)[C@H](N)C(=O)O; Hyp = O=C(O)[C@@H]1C[C@@H](O)CN1
# Tests used:
# Assay type in all cases: functional
# [1] = test system: Trichophyton mentagrophytes; experiment: Antifungal activity against Trichophyton mentagrophytes after 96 hrs by broth micro-dilution method
# Aspergillus niger = experiment: Antifungal activity against Aspergillus niger after 96 hrs by broth micro-dilution method
# Escherichia coli = experiment: Antibacterial activity against Escherichia coli after 48 hrs by broth micro-dilution method
# Bacillus subtilis = experiment: Antibacterial activity against Bacillus subtilis after 48 hrs by broth micro-dilution method
# Micrococcus luteus = experiment: Antibacterial activity against Micrococcus luteus after 48 hrs by broth micro-dilution method
# Cryptococcus neoformans = experiment: Antifungal activity against Cryptococcus neoformans after 96 hrs by broth micro-dilution method
# Candida albicans = experiment: Antifungal activity against Candida albicans after 48 hrs by broth micro-dilution method
# Staphylococcus aureus = experiment: Antibacterial activity against Staphylococcus aureus after 48 hrs by broth micro-dilution method
Compound,IC50 [1],IC50 (Aspergillus niger),MIC (Escherichia coli),MIC (Bacillus subtilis),MIC (Micrococcus luteus),IC50 (Cryptococcus neoformans),IC50 (Candida albicans),MIC (Staphylococcus aureus)
CN[C@H]1C[C@@H](N)[C@H](O)[C@@H](O[C@@H]2O[C@H](CO)[C@H](O)[C@@H]3O[C@@]4(O[C@H]23)O[C@H]([C@@H](N)CO)[C@H](O)[C@H](O)[C@H]4O)[C@@H]1O,1 µg/mL,1 µg/mL,2 µg/mL,2 µg/mL,1 µg/mL,3.9 µg/mL,3.9 µg/mL,0.5 µg/mL
"CCCCCOc1ccc(-c2cc(-c3ccc(C(=O)N[C@H]4C[C@@H](O)[C@@H](O)NC(=O)[C@@H]5[C@@H](O)[C@@H](C)CN5C(=O)[C@H]([C@H](O)CC(N)=O)NC(=O)[C@H]([C@H](O)[C@@H](O)c5ccc(O)c(OS(=O)(=O)O)c5)NC(=O)[C@@H]5C[C@@H](O)CN5C(=O)[C@H]([C@@H](C)O)NC4=O)cc3)no2)cc1 [MICAFUNGIN] (X1-[Orn(4R-OH,5R-OH)]T[Hyp][hTyr(3S-OH,4S-OH,3'-OSO3H)][Gln(3R-OH)][Pro(3S-OH,4S-Me)]; lactam 1-C)",< 0.1 µg/mL,< 0.1 µg/mL,> 62.5 µg/mL,0.5 µg/mL,7.8 µg/mL,< 0.1 µg/mL,< 0.1 µg/mL,0.5 µg/mL

# Next, values leading:
IC50 [1],IC50 (Aspergillus niger),MIC (Escherichia coli),MIC (Bacillus subtilis),MIC (Micrococcus luteus),IC50 (Cryptococcus neoformans),IC50 (Candida albicans),MIC (Staphylococcus aureus),Compound
> 32 µg/mL,> 32 µg/mL,> 32 µg/mL,> 32 µg/mL,> 32 µg/mL,32 µg/mL,> 32 µg/mL,> 32 µg/mL,Cc1cccc(O)c1C(=O)O[C@@H]1[C@@H](O)[C@H](O)[C@@H](NC(=O)c2cccc(O)c2)C[C@H]1OC(N)=O
> 32 µg/mL,> 32 µg/mL,> 32 µg/mL,> 32 µg/mL,> 32 µg/mL,16 µg/mL,> 32 µg/mL,> 32 µg/mL,Cc1cccc(O)c1C(=O)O[C@H]1[C@H](O)[C@@H](O)[C@H](OC(N)=O)C[C@@H]1NC(=O)c1cccc(O)c1
3.9 µg/mL,1.8 µg/mL,> 31.2 µg/mL,> 31.2 µg/mL,> 31.2 µg/mL,< 0.05 µg/mL,1 µg/mL,> 31.2 µg/mL,C[C@@H]1[C@H](O)[C@@H](C)/C=C/C=C/C=C/C=C/C=C/C=C/C=C/[C@H](O[C@@H]2O[C@H](C)[C@@H](O)[C@H](N)[C@@H]2O)C[C@@H]2O[C@](O)(C[C@@H](O)C[C@@H](O)[C@H](O)CC[C@@H](O)C[C@@H](O)CC(=O)O[C@H]1C)C[C@H](O)[C@H]2C(=O)O [AMPHOTERICIN B]
7.8 µg/mL,31.3 µg/mL,< 0.1 µg/mL,< 0.1 µg/mL,1 µg/mL,7.8 µg/mL,> 62.5 µg/mL,< 0.1 µg/mL,NC[C@H]1O[C@H](O[C@H]2[C@H](O)[C@@H](O[C@H]3O[C@H](CO)[C@@H](O)[C@H](N)[C@H]3O)[C@H](N)C[C@@H]2N)[C@H](O)[C@@H](O)[C@@H]1O [KANAMYCIN]
